According to US11952346B2, “Modulators of mas-related G-protein receptor X2 and related products and methods” (Escient Pharmaceuticals, Inc., priority 2020, dated 2024):

Target: T1, human MRGPRX2 (Homo sapiens, UniProt Q96LB1)
T1 construct: expressed in transfected cells
T1 sequence (Q96LB1 1-330): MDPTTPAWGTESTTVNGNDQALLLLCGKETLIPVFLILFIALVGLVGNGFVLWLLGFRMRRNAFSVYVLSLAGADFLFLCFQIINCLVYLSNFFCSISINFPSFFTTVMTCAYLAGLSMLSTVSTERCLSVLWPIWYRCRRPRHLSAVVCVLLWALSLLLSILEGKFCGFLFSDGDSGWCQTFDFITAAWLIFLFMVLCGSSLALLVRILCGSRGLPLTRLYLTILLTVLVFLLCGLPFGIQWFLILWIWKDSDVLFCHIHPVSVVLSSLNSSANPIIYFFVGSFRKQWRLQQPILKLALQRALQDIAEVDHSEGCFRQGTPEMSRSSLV
Assay: MRGPRX2 antagonist activity, IP-One HTRF assay in CHO cells expressing human MRGPRX2 versus Cortistatin-14
Type: cell-based
Conditions: not given
Method: CHO cells stably transfected to express human MRGPRX2 were maintained in an incubator at 37° C. with 5% CO2 and grown in F12 (HAM) media with 10% fetal bovine serum (FBS), 1% Glutamax, 1% penicillin/streptomycin, 800 μg/mL Geneticin (G418), and 300 μg/mL Hygromycin B. Cells were plated in a 384-well assay plate at 20,000 cells per well in 12 μL of Opti-MEM and kept in an incubator overnight. On the day of the assay, compounds solubilized at 10 mM in DMSO were added as a 10-point curve (30 uM final top concentration with 1:3 serial dilutions) using a Tecan D300E digital dispenser. Agonists were diluted in assay buffer (final concentrations of 5.7 mM Tris-HCl, 43 mM NaCl, 50 mM LiCI, pH=8) and 2 μL of the agonist Cortistatin-14 (CPC Scientific, catalog CORT-002) are added to each well. Final concentrations of agonists were […] Cortistatin-14. Final concentrations of DMSO were kept consistent across the plate. Plates were incubated in the dark for 1 hr at 37° C. and then for 1 hr at room temperature. IP-1 standards and HTRF detection reagents were added according to the IP-One—Gq Kit purchased from Cisbio (part number 621PAPEJ) and incubated in the dark for 1 hr at room temperature. The plate was read on a Molecular Devices SpectraMax iD5 plate reader. The HTRF ratio was calculated from the raw data and graphed using GraphPad Prism to calculate an IC50 value for each compound.
The activity ranges are denoted as follows: “+++++” denotes antagonist activity <100 nM; “++++” denotes antagonist activity between 100 and 500 nM; “+++” denotes activity between 501 and 1000 nM; “++” denotes activity between 1001 and 2500 nM; and “+” denotes activity >2500 nM.

`Cn1nccc1C(=O)N[C@H]1CC[C@@H](Nc2ccc(C#N)c(C(F)(F)F)c2)CC1` [1-17] and `CN(c1ccc(C(=O)N[C@H]2CC[C@@H](Nc3ccc(C#N)c(C(F)(F)F)c3)CC2)cc1)S(C)(=O)=O` [1-18] fall in the same range of IC50: 100 to 500 nM for the first, 100 to 500 nM for the second.

In the case of `N#Cc1ccc(N[C@H]2CC[C@@H](NC(=O)c3c[nH]c4ccccc34)CC2)cc1C(F)(F)F` [1-19], the IC50 is reported as under 100 nM.

Same assay, conditions: CHO cells stably expressing human MRGPRX2; versus 0.3 uM Cortistatin-14 agonist; IP-1 HTRF readout; read-out: MRGPR2 Antagonist Activity

`COc1cccc(C(=O)N[C@H]2CC[C@@H](Nc3cc(C(F)(F)F)nc(C(F)(F)F)c3)CC2)c1` [4-1] and `O=C(N[C@H]1CC[C@@H](Nc2cc(C(F)(F)F)nc(C(F)(F)F)c2)CC1)c1cccc(O)c1` [4-28] fall in the same range of IC50: 100 to 500 nM for the first, 100 to 500 nM for the second.

`Cc1cc(N[C@H]2CC[C@@H](NC(=O)c3ccc(NCC(F)F)cc3)CC2)cc(C(F)(F)F)c1C#N` [5-8] and `Cc1cc(N[C@H]2CC[C@@H](NC(=O)c3ccc4cncn4c3)CC2)cc(C(F)(F)F)c1C#N` [5-9] cannot be ordered by IC50: under 100 nM for the first, under 100 nM for the second.

`N#Cc1ccc(N[C@H]2CC[C@@H](NC(=O)c3c[nH]c4ncccc34)CC2)cc1C(F)(F)F` [4-57] and `N#Cc1ccc(N[C@H]2CC[C@@H](NC(=O)c3c[nH]c4cnccc34)CC2)cc1C(F)(F)F` [4-64] cannot be ordered by IC50: under 100 nM for the first, under 100 nM for the second.

`N#Cc1ccc(N[C@H]2CC[C@@H](NC(=O)c3cn[nH]c3C#N)CC2)cc1C(F)(F)F` [4-56] and `N#Cc1ccc(N[C@H]2CC[C@@H](NC(=O)c3ccnc4[nH]ncc34)CC2)cc1C(F)(F)F` [4-59] cannot be ordered by IC50: under 100 nM for the first, under 100 nM for the second.

`Cn1ccc2c(C(=O)N[C@H]3CC[C@@H](Nc4ccc(C#N)c(C(F)(F)F)c4)CC3)ccnc21` [4-61] and `N#Cc1ccc(N[C@H]2CC[C@@H](NC(=O)c3c[nH]c4ccncc34)CC2)cc1C(F)(F)F` [4-63] cannot be ordered by IC50: under 100 nM for the first, under 100 nM for the second.

`O=C(N[C@H]1CC[C@@H](Nc2cc(C(F)(F)F)nc(C(F)(F)F)c2)CC1)c1ccc(N2CCCC2)cc1` [4-41] and `O=C(N[C@H]1CC[C@@H](Nc2cc(C(F)(F)F)nc(C(F)(F)F)c2)CC1)c1ccc(N2CCS(=O)(=O)CC2)cc1` [4-38] fall in the same range of IC50: 100 to 500 nM for the first, 100 to 500 nM for the second.

`O=C(N[C@H]1CC[C@@H](Nc2cc(C(F)(F)F)nc(C(F)(F)F)c2)CC1)c1cccc2[nH]ccc12` [4-6] and `O=C(N[C@H]1CC[C@@H](Nc2cc(C(F)(F)F)nc(C(F)(F)F)c2)CC1)c1c[nH]c2ccccc12` [4-22] fall in the same range of IC50: 100 to 500 nM for the first, 100 to 500 nM for the second.

First: COc1ccc(C(=O)N[C@@H]2CCC[C@H](Nc3cc(C(F)(F)F)nc(C(F)(F)F)c3)C2)cc1 [example 1, N-((1R,3S)-3-((2,6-bis(trifluoromethyl)pyridin-4-yl)amino)cyclohexyl)-4-methoxybenzamide]
Second: COc1ccc(C(=O)N[C@H]2CC[C@@H](Nc3cc(C(F)(F)F)nc(C(F)(F)F)c3)CC2)cc1 [1-3]
The IC50 of the first is higher: over 2500 nM for the first, 100 to 500 nM for the second.

`CC(C)S(=O)(=O)Nc1ccc(C(=O)N[C@H]2CC[C@@H](Nc3ccc(C#N)c(C(F)(F)F)c3)CC2)cc1` [1-14] and `CNc1ccc(C(=O)N[C@H]2CC[C@@H](Nc3ccc(C#N)c(C(F)(F)F)c3)CC2)cc1` [4-47] cannot be ordered by IC50: under 100 nM for the first, under 100 nM for the second.

First: O=C(N[C@H]1CC[C@@H](Nc2cc(C(F)(F)F)nc(C(F)(F)F)c2)CC1)n1cccc1 [4-2]
Second: O=C(N[C@H]1CC[C@@H](Nc2cc(C(F)(F)F)nc(C(F)(F)F)c2)CC1)c1ccccc1 [example 3, N-((1S,4S)-4-((2,6-bis(trifluoromethyl)pyridin-4-yl)amino)cyclohexyl)benzamide]
The IC50 of the first is lower: 100 to 500 nM for the first, 501 to 1000 nM for the second.

First: N#Cc1ccc(N[C@H]2CC[C@@H](NC(=O)c3ccc(F)cc3)CC2)cc1C(F)(F)F [1-22]
Second: N#Cc1ccc(N[C@H]2CC[C@@H](NC(=O)c3ccc4cn[nH]c4c3)CC2)cc1C(F)(F)F [4-49]
The IC50 of the first is higher: 100 to 500 nM for the first, under 100 nM for the second.

First: CC(C)C(=O)Nc1cccc(C(=O)N[C@H]2CC[C@@H](Nc3cc(C(F)(F)F)nc(C(F)(F)F)c3)CC2)c1 [4-16]
Second: CC(=O)Nc1cccc(C(=O)N[C@H]2CC[C@@H](Nc3cc(C(F)(F)F)nc(C(F)(F)F)c3)CC2)c1 [4-5]
The IC50 of the first is higher: 501 to 1000 nM for the first, 100 to 500 nM for the second.

First: CCN(C)c1nc(N[C@H]2CC[C@@H](NC(=O)c3ccc(N(C)C)cc3)CC2)cc(C(F)(F)F)n1 [Example 11, 4-(dimethylamino)-N-(1S,4S)-[4-[[2-[ethyl(methyl)amino]-6-(trifluoromethyl)pyrimidin-4-yl]amino]cyclohexyl] benzamide]
Second: COc1ccc(C(=O)N[C@H]2CC[C@@H](Nc3cc(C(F)(F)F)nc(N(C)C)n3)CC2)cc1 [Example 16, N-(1S,4S)-[4-[[2-(dimethylamino)-6-(trifluoromethyl)pyrimidin-4-yl]amino]cyclohexyl]-4-methoxy-benzamide]
The IC50 of the first is lower: 100 to 500 nM for the first, 501 to 1000 nM for the second. The first is the more potent here.

`CN1CCc2c(cccc2C(=O)N[C@H]2CC[C@@H](Nc3cc(C(F)(F)F)nc(C(F)(F)F)c3)CC2)C1` [4-34] and `CN1CCCc2ccc(C(=O)N[C@H]3CC[C@@H](Nc4cc(C(F)(F)F)nc(C(F)(F)F)c4)CC3)cc21` [4-15] fall in the same range of IC50: 1000 to 2500 nM for the first, 1000 to 2500 nM for the second.

`CC1=NN(c2ccc(C(=O)N[C@H]3CC[C@@H](Nc4cc(C(F)(F)F)nc(C(F)(F)F)c4)CC3)cc2)C(=O)C1` [4-33] and `CNc1ccc(C(=O)N[C@H]2CC[C@@H](Nc3cc(C(F)(F)F)nc(C(F)(F)F)c3)CC2)cc1` [4-4] fall in the same range of IC50: 100 to 500 nM for the first, 100 to 500 nM for the second.

Compared with `O=C(N[C@H]1CC[C@@H](Nc2cc(C(F)(F)F)nc(C(F)(F)F)c2)CC1)c1ccc(-n2ccnc2)cc1` [4-25], `N=C(N)Nc1ccc(C(=O)N[C@H]2CC[C@@H](Nc3cc(C(F)(F)F)nc(C(F)(F)F)c3)CC2)cc1` [4-20] is higher in IC50: 100 to 500 nM for the first, 501 to 1000 nM for the second.

`CCn1nccc1C(=O)N[C@H]1CC[C@@H](Nc2cc(C)c(C#N)c(C(F)(F)F)c2)CC1` [5-6] and `CNc1cc(C(=O)N[C@H]2CC[C@@H](Nc3cc(C)c(C#N)c(C(F)(F)F)c3)CC2)ccn1` [5-4] cannot be ordered by IC50: under 100 nM for the first, under 100 nM for the second.

`N#Cc1ccc(N[C@H]2CC[C@@H](NC(=O)c3csc(N)n3)CC2)cc1C(F)(F)F` [1-15] and `Nc1nc(C(=O)N[C@H]2CC[C@@H](Nc3cc(C(F)(F)F)nc(C(F)(F)F)c3)CC2)cs1` [4-27] fall in the same range of IC50: 100 to 500 nM for the first, 100 to 500 nM for the second.

`CN(C)c1ccc(C(=O)N[C@H]2CC[C@@H](Nc3cc(N(C)C)nc(C(F)(F)F)c3)CC2)cc1` [2-1] and `O=C(N[C@H]1CC[C@@H](Nc2cc(C3CC3)nc(C(F)(F)F)c2)CC1)c1ccc(F)cc1` [Example 8, N-(1S, 4S)-[4-[[2-cyclopropyl-6-(trifluoromethyl)-4-pyridyl]amino]cyclohexyl]-4-fluoro-benzamide] fall in the same range of IC50: 1000 to 2500 nM for the first, 1000 to 2500 nM for the second.

First: CS(=O)(=O)Nc1cccc(C(=O)N[C@H]2CC[C@@H](Nc3cc(C(F)(F)F)nc(C(F)(F)F)c3)CC2)c1 [4-10]
Second: O=C(N[C@H]1CC[C@@H](Nc2cc(C(F)(F)F)nc(C(F)(F)F)c2)CC1)c1ccc2c(c1)CCCC2 [4-42]
The IC50 of the first is lower: 100 to 500 nM for the first, 501 to 1000 nM for the second.

Compared with `O=C(N[C@H]1CC[C@@H](Nc2cc(C(F)(F)F)nc(C(F)(F)F)c2)CC1)c1ccc2nccn2c1` [4-39], `O=C(N[C@@H]1CCC[C@H](Nc2cc(C(F)(F)F)nc(C(F)(F)F)c2)C1)c1ccccc1` [Example 2, N-((1R,3S)-3-((2,6-bis(trifluoromethyl)pyridin-4-yl)amino)cyclohexyl)benzamide] is higher in IC50: 100 to 500 nM for the first, over 2500 nM for the second.

First: O=C(N[C@H]1CC[C@@H](Nc2cc(C(F)(F)F)nc(C(F)(F)F)c2)CC1)c1cc2c([nH]1)CCCC2 [4-37]
Second: CN(C)C(=O)N[C@H]1CC[C@@H](Nc2cc(C(F)(F)F)nc(C(F)(F)F)c2)CC1 [4-29]
The IC50 of the first is lower: 501 to 1000 nM for the first, 1000 to 2500 nM for the second.

Compared with `COc1ccc(C(=O)N[C@H]2CC[C@@H](Nc3cc(C(F)(F)F)nc(N(C)C(C)C)n3)CC2)cc1` [3-1], `CN(C)c1nc(N[C@H]2CC[C@@H](NC(=O)c3ccccc3)CC2)cc(C(F)(F)F)n1` [1-10] is lower in IC50: 1000 to 2500 nM for the first, 501 to 1000 nM for the second. The second is the more potent here.

`CN(C)c1ccc(C(=O)N[C@H]2CC[C@@H](Nc3ccc(C#N)c(C(F)(F)F)c3)CC2)c(F)c1` [1-13] and `N#Cc1ccc(N[C@H]2CC[C@@H](NC(=O)c3ccc(N4CCOCC4)cc3)CC2)cc1C(F)(F)F` [1-25] fall in the same range of IC50: 100 to 500 nM for the first, 100 to 500 nM for the second.

`O=C(N[C@H]1CC[C@@H](Nc2cc(C(F)(F)F)nc(Nc3ccccc3)n2)CC1)c1ccc(F)cc1` [Example 10, N-(1S,4S)-[4-[[2-anilino-6-(trifluoromethyl)pyrimidin-4-yl]amino}cyclohexyl]-4-fluoro-benzamide] and `O=C(N[C@H]1CC[C@@H](Nc2cc(C(F)(F)F)cc(C(F)(F)F)c2)CC1)c1ccc(F)cc1` [Example 6, N-((1S,4S)-4-((3,5-bis(trifluoromethyl)phenyl)amino)cyclohexyl)-4-fluorobenzamide] fall in the same range of IC50: 1000 to 2500 nM for the first, 1000 to 2500 nM for the second.

`Cc1cc(N[C@H]2CC[C@@H](NC(=O)c3cn(CC(F)F)nc3C)CC2)cc(C(F)(F)F)c1C#N` [5-10] was tested, and the IC50 was under 100 nM.
